Test system: lung gene expression
Assay: RNA sequencing of lung tissue (BLM/EL244 vs BLM)
Assay type: in vivo, mouse
Conditions: lung tissue, BLM/EL244 vs BLM
Method: RNA quality was assessed using an Agilent TapeStation 4150 with the High Sensitivity […] ScreenTape (Agilent), according to the manufacturer’s protocols. For library preparation, the QuantSeq 3’mRNA-Seq Library Prep Kit (Lexogen) was used according to manufacturer’s instructions. Briefly, 500 ng of RNA from each sample was used for first-strand synthesis, followed by RNA template removal, and second-strand synthesis initiated by random primers. In-line barcodes were introduced at this step, and this was followed by magnetic bead-based purification. The resulting libraries were amplified for 15 cycles and re-purified, with quantity and quality assessed on a Qubit 4 Fluorometer with the Invitrogen Qubit dsDNA HS Assay and an Agilent Tapestation 4150 with the High Sensitivity D1000 assay kit, respectively. The quantified libraries were pooled equimolarly; 50ng of total library mix was used for Adapter Conversion PCR Amplification using the Universal Library Conversion Kit (App-A), Version: V1.0 (MGI Tech Co., Ltd.), according to the manufacturer’s instructions.
The quantity and quality of the purified adapter conversion PCR (AC-PCR) product were evaluated on a Qubit 4 Fluorometer with the Invitrogen Qubit dsDNA HS Assay and on an Agilent Tapestation 4150 with the High Sensitivity D1000 assay kit, respectively. This was followed by DNA denaturation, Single-Strand Circularisation, Enzymatic Digestion, Enzymatic Digestion Product Cleanup and Quality Control steps on 1 pmol of AC-PCR product, according to the Universal Library Conversion Kit (App-A) User Manual (Version: A3).
Finally, 60 fmol of ssCirDNA were used for DNB preparation and sequencing on a DNBSEQ-G400 platform at the BSRC Alexander Fleming Genomics Facility, using a G400 App-A FCS SE100 High-throughput Sequencing Set (MGI Tech Co., Ltd.), according to the manufacturer’s instructions.
Alignment of the FASTQ files was performed against the mouse genome build mm10 using a custom Bash script.[143] Read counting on the 3′ UTRs and differential expression analysis were conducted using the metaseqR2 bioconductor package.[144] Genes corresponding to the following biotypes were excluded: polymorphic_pseudogene, processed_transcript, pseudogene, IG_V_pseudogene, misc_RNA, IG_C_gene, IG_J_gene, IG_D_gene, IG_LV_gene, TR_V_gene, TR_V_pseudogene, TEC, and processed_pseudogene. Gene counts were normalized with DESEQ[145] through metaseqR2. Genes with more than 10 counts in at least 50% of the samples were kept for further processing. For differential expression analysis, the PANDORA algorithm[146] was used to estimate a meta p-value integrating the results from the DESEQ, DESEQ2,[147] edgeR,[148] limma,[149] NBPSeq,[150] and NOISeq[151] algorithms. All additional parameters were set to default values.
Pathway enrichment analysis was performed for the Gene Ontology Biological process (BP) and Molecular Function (MF) terms through GeneCodis 4.[152] The volcano plots, scatterplots, Venn diagrams, and dot plots were generated using the ggplot2 Bioconductor package.

SMILES: O=C1NC(=O)C(Cc2ccc(OCCC3CCN(C(=O)OCc4cc(Cl)cc(Cl)c4)CC3)cc2)S1 (stereo not shown) [EL244, 3,5-dichlorobenzyl 4-(2-(4-((2,4-dioxothiazolidin-5-yl)methyl)phenoxy)ethyl)piperidine-1-carboxylate]
- Prrx2 nFC: 0.30
- Prss23 log2 nFC: 0.67
- Prss23 nFC: 1.60
- Ptprb log2 nFC: 0.67
- Ptprb nFC: 1.59
- Rad51 log2 nFC: -1.90
- Rad51 nFC: 0.27
- Rad54l log2 nFC: -1.87
- Rad54l nFC: 0.27
- Rbm33 log2 nFC: 0.58
- Rbm33 nFC: 1.50
- Rcan1 log2 nFC: -0.84
- Rcan1 nFC: 0.56
- Rcn3 log2 nFC: -0.66
- Rcn3 nFC: 0.63
- Retnla log2 nFC: -2.32
- Retnla nFC: 0.20
- Rgs16 log2 nFC: -2.59
- Rgs16 nFC: 0.17
- Rnaset2a log2 nFC: -0.70
- Rnaset2a nFC: 0.62
- Rps27l log2 nFC: -0.70
- Rps27l nFC: 0.62
- Rrm1 log2 nFC: -0.81
- Rrm1 nFC: 0.57
- Rrm2 log2 nFC: -2.56
- Rrm2 nFC: 0.17
- S100a11 log2 nFC: -0.60
- S100a11 nFC: 0.66
- Saa3 log2 nFC: -2.75
- Saa3 nFC: 0.15
- Sash1 log2 nFC: 0.59
- Sash1 nFC: 1.50
- Scarb1 log2 nFC: -0.72
- Scarb1 nFC: 0.61
- Scgb3a2 log2 nFC: 0.65
- Scgb3a2 nFC: 1.56
- Selenop log2 nFC: 0.58
- Selenop nFC: 1.50
- Sfrp1 log2 nFC: -1.73
- Sfrp1 nFC: 0.30
- Sftpc log2 nFC: 0.62
- Sftpc nFC: 1.54
- Sgo2a log2 nFC: -1.68
- Sgo2a nFC: 0.31
- Sh3pxd2b log2 nFC: -0.78
- Sh3pxd2b nFC: 0.58
- Shcbp1 log2 nFC: -1.60
- Shcbp1 nFC: 0.33
- Sirpa log2 nFC: -0.71
- Sirpa nFC: 0.61
- Ska1 log2 nFC: -2.52
- Ska1 nFC: 0.17
- Slc7a11 log2 nFC: -1.50
- Slc7a11 nFC: 0.35
- Slc36a1 log2 nFC: -0.81
- Slc36a1 nFC: 0.57
- Slc39a1 log2 nFC: -0.63
- Slc39a1 nFC: 0.65
- Snrnp40 log2 nFC: -0.60
- Snrnp40 nFC: 0.66
- Snrpd1 log2 nFC: -0.64
- Snrpd1 nFC: 0.64
- Socs3 log2 nFC: -0.62
- Socs3 nFC: 0.65
- Sox4 log2 nFC: -0.80
- Sox4 nFC: 0.57
- Sox9 log2 nFC: -1.42
- Sox9 nFC: 0.37
- Spag5 log2 nFC: -1.65
- Spag5 nFC: 0.32
- Sparc log2 nFC: -0.74
- Sparc nFC: 0.60
- Spc25 log2 nFC: -2.02
- Spc25 nFC: 0.25
- Spp1 log2 nFC: -1.50
- Spp1 nFC: 0.35
- Ssc5d log2 nFC: -1.71
- Ssc5d nFC: 0.31
- Ssh2 log2 nFC: 0.66
- Ssh2 nFC: 1.58
- Sting1 log2 nFC: -0.77
- Sting1 nFC: 0.59
- Stmn1 log2 nFC: -0.70
- Stmn1 nFC: 0.62
- Stxbp6 log2 nFC: 0.64
- Stxbp6 nFC: 1.56
- Tacc2 log2 nFC: 0.66
- Tacc2 nFC: 1.57
- Taf10 log2 nFC: -0.59
- Taf10 nFC: 0.67
- Tceal9 log2 nFC: -0.69
- Tceal9 nFC: 0.62
- Tcf19 log2 nFC: -1.42
- Tcf19 nFC: 0.37
- Tfdp1 log2 nFC: -0.74
- Tfdp1 nFC: 0.60
- Tgfbi log2 nFC: -0.68
- Tgfbi nFC: 0.62
- Tgif1 log2 nFC: -0.75
- Tgif1 nFC: 0.60
- Thbs4 log2 nFC: -2.34
- Thbs4 nFC: 0.20
- Thoc6 log2 nFC: -0.81
- Thoc6 nFC: 0.57
- Timm44 log2 nFC: -0.72
- Timm44 nFC: 0.61
- Timp1 log2 nFC: -2.30
- Timp1 nFC: 0.20
- Tk1 log2 nFC: -2.01
- Tk1 nFC: 0.25
- Tmem37 log2 nFC: -0.82
- Tmem37 nFC: 0.57
- Tmem252 log2 nFC: -0.70
- Tmem252 nFC: 0.62
- Tmsb10 log2 nFC: -0.58
- Tmsb10 nFC: 0.67
- Tnc log2 nFC: -2.35
- Tnc nFC: 0.20
- Tnfrsf1b log2 nFC: -0.70
- Tnfrsf1b nFC: 0.61
- Tnip3 log2 nFC: -1.47
- Tnip3 nFC: 0.36
- Tns1 log2 nFC: 0.67
- Tns1 nFC: 1.59
- Top2a log2 nFC: -1.97
- Top2a nFC: 0.25
- Tpx2 log2 nFC: -2.92
- Tpx2 nFC: 0.13
- Trem2 log2 nFC: -1.42
- Trem2 nFC: 0.37
- Trip13 log2 nFC: -1.42
- Trip13 nFC: 0.37
- Tspan7 log2 nFC: 0.64
- Tspan7 nFC: 1.56
- Tubb5 log2 nFC: -0.77
- Tubb5 nFC: 0.59
- Tubb6 log2 nFC: -0.75
- Tubb6 nFC: 0.59
- Txnip log2 nFC: 0.65
- Txnip nFC: 1.56
- Tyrobp log2 nFC: -0.69
- Tyrobp nFC: 0.62
- Ube2c log2 nFC: -1.80
- Ube2c nFC: 0.29
- Uhrf1 log2 nFC: -1.72
- Uhrf1 nFC: 0.30
- Utrn log2 nFC: 0.68
- Utrn nFC: 1.60
- Vangl2 log2 nFC: -0.76
- Vangl2 nFC: 0.59
- Xcl1 log2 nFC: -1.81
- Xcl1 nFC: 0.29
- Zfp46 log2 nFC: -0.70
- Zfp46 nFC: 0.62
- Zranb3 log2 nFC: -1.43
- Zranb3 nFC: 0.37
- Zwilch log2 nFC: -1.54
- Zwilch nFC: 0.34
- log2 nFC 1500009L16Rik: -1.23
- log2 nFC 2200002D01Rik: -0.88
- log2 nFC AA467197: -1.39
- log2 nFC Adamts2: -1.00
- log2 nFC Areg: -1.03
- log2 nFC Arhgap11a: -1.13
- log2 nFC Armcx4: -1.32
- log2 nFC Asf1b: -1.14
- log2 nFC Bcl2a1b: -1.15
- log2 nFC Bcl2a1d: -1.29
- log2 nFC Bub1b: -1.19
- log2 nFC C1qtnf5: -0.87
- log2 nFC C1qtnf6: -1.38
- log2 nFC Ccdc8: -1.11
- log2 nFC Ccl9: -1.37
- log2 nFC Ccl17: -0.95
- log2 nFC Cd68: -0.99
- log2 nFC Cd72: -1.01
- log2 nFC Cd248: -1.25
- log2 nFC Cd300c2: -0.89
- log2 nFC Cdca2: -1.33
- log2 nFC Cenpa: -1.31
- log2 nFC Cenpw: -1.33
- log2 nFC Cercam: -1.37
- log2 nFC Ch25h: -0.91
- log2 nFC Cilp: -1.39
- log2 nFC Clcn5: -0.92
- log2 nFC Clec4a2: -1.26
- log2 nFC Clec4n: -1.39
- log2 nFC Clec5a: -1.14
- log2 nFC Clec11a: -1.00
- log2 nFC Clec12a: -0.91
- log2 nFC Col1a2: -1.41
- log2 nFC Col8a1: -1.19
- log2 nFC Col12a1: -0.90
- log2 nFC Col15a1: -1.10
- log2 nFC Col16a1: -0.92
- log2 nFC Cotl1: -0.88
- log2 nFC Csf2rb2: -0.99
- log2 nFC Cstb: -0.95
- log2 nFC Ctsk: -0.98
- log2 nFC Ctss: -0.92
- log2 nFC Cx3cr1: -1.17
- log2 nFC Cyp7b1: -1.41
- log2 nFC Dbn1: -0.88
- log2 nFC Dclk1: -0.86
- log2 nFC Diaph3: -1.13
- log2 nFC Dio2: -1.39
- log2 nFC Dok2: -1.37
- log2 nFC Dut: -0.89
- log2 nFC Egr2: -0.89
- log2 nFC Epha4: -0.89
- log2 nFC F10: -1.11
- log2 nFC Fam20c: -1.06
- log2 nFC Fbn1: -1.03
- log2 nFC Fcgr1: -1.30
- log2 nFC Fcgr2b: -1.08
- log2 nFC Fcrls: -1.35
- log2 nFC Fen1: -1.00
- log2 nFC Fgf13: -1.40
- log2 nFC Fkbp10: -1.25
- log2 nFC Fndc1: -1.11
- log2 nFC Fscn1: -1.22
- log2 nFC Fst: -1.05
- log2 nFC Fstl1: -1.21
- log2 nFC Gas2l3: -1.32
- log2 nFC Gm13889: -0.85
- log2 nFC Gm25380: -1.01
- log2 nFC Gm42674: -1.18
- log2 nFC Gm49339: -0.94
